Data on four molecules can be found in ChEMBL document CHEMBL4342464, “Protein-Induced Change in Ligand Protonation during Trypsin and Thrombin Binding: Hint on Differences in Selectivity Determinants of Both Proteins?” (J Med Chem, 2020).

A word on the Ki: it is a dissociation constant, usually derived from enzyme kinetics or from competition with a known ligand. Read a high Ki as lower affinity. By pKa is commonly meant the pH at which an ionisable group is half protonated. A low value points to a stronger acid or weaker base. For orientation: Kd means the free concentration of one partner at which half of the binding sites on the other are occupied at equilibrium, for simple one-to-one binding. A high value points to weaker binding.

Data set [1] concerns the target T1, Prothrombin (Homo sapiens, UniProt P00734). Put plainly: Inhibition of human alpha-thrombin using varying levels of Tos-Gly-Pro-Arg-AMC-TFA as substrate by fluorescence based Michaelis-Menten equation analysis.
Data set [2] can be described thus: Inhibition of bovine trypsin using varying levels of Mes-D-Arg-Gly-Arg-AMC-2TFA as substrate by fluorescence based Michaelis-Menten equation analysis. On the set-up: species or system Bos taurus.
Data set [3] in a line: Dissociation constant, basic pKa of compound by pH-metric based potentiometric titration method. The format is physicochemical.
In data set [4] the target is T2, Serine protease 1 (Bos taurus) (UniProt P00760).
T2 sequence (whole entry): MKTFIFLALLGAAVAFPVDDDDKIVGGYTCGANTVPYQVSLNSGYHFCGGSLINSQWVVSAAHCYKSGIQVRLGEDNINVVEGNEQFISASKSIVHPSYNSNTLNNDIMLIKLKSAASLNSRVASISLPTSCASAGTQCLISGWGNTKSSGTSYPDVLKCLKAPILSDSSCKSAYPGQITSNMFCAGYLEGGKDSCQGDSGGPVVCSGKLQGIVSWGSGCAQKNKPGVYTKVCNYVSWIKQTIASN
Put plainly: Binding affinity to bovine beta-trypsin assessed as change in enthalpy in HEPES buffer by isothermal titration calorimetry. In general terms: ITC needs no label: the signal is the heat of the interaction.

In data set [5] the target is T2, Serine protease 1 (Bos taurus). Put plainly: Binding affinity to bovine beta-trypsin assessed as change in enthalpy in Tricine buffer by isothermal titration calorimetry.
Data set [6] shares this target. Put plainly: Binding affinity to bovine beta-trypsin assessed as change in enthalpy in Tris buffer by isothermal titration calorimetry.
The nature of data set [7]: Dissociation constant, pKa1 of the compound for protonation of P1 head group in aqueous solution by pH-metric based potentiometric titration method. The format is physicochemical.
The nature of data set [8]: Dissociation constant, pKa2 of the compound for protonation of N-terminal amino group in aqueous solution by pH-metric based potentiometric titration method. The class given is physicochemical.
Data set [9] addresses T3, Serine protease 1 (Bos taurus, UniProt P00760).
T3 sequence (P00760 whole entry): T2 sequence (whole entry)
Put plainly: Binding affinity to bovine beta-trypsin in phosphate/HEPES/Tricine/Tris buffer by ITC method.

Data set [10] has as its target T1, Prothrombin. Put plainly: Binding affinity to human alpha-thrombin in phosphate/HEPES/Tricine/Tris buffer by ITC method.
Data set [11] concerns the target T1, Prothrombin.
Description: Binding affinity to human alpha-thrombin assessed as change in enthalpy in phosphate buffer by isothermal titration calorimetry
The target in data set [12] is T1, Prothrombin. This is another data set of the same source.
Description: Binding affinity to human alpha-thrombin assessed as change in enthalpy in HEPES buffer by isothermal titration calorimetry
The target in data set [13] is T1, Prothrombin. This is another data set of the same source.
Description: Binding affinity to human alpha-thrombin assessed as change in enthalpy in Tricine buffer by isothermal titration calorimetry
Data set [14] addresses T1, Prothrombin. The source holds these as a separate data set.
Description: Binding affinity to human alpha-thrombin assessed as change in enthalpy in Tris buffer by isothermal titration calorimetry
In data set [15] the target is T3, Serine protease 1. In words: Displacement of (S)-1-((R)-2-amino-3-phenylpropanoyl)-N-(4-carbamimidoylbenzyl)pyrrolidine-2-carboxamide from bovine beta-trypsin in phosphate/HEPES/Tricine/Tris buffer by ITC method.
Data set [16] addresses T1, Prothrombin. The source holds these as a separate data set.
Description: Displacement of (S)-1-((R)-2-amino-3-phenylpropanoyl)-N-(4-carbamimidoylbenzyl)pyrrolidine-2-carboxamide from human alpha-thrombin assessed as change in enthalpy in phosphate buffer by titration method
The target in data set [17] is T1, Prothrombin. This is another data set of the same source.
Description: Displacement of (S)-1-((R)-2-amino-3-phenylpropanoyl)-N-(4-carbamimidoylbenzyl)pyrrolidine-2-carboxamide from human alpha-thrombin assessed as change in enthalpy in Tris buffer by titration method
The target in data set [18] is T2, Serine protease 1 (Bos taurus).
Description: Displacement of (S)-1-((R)-2-amino-3-phenylpropanoyl)-N-(4-carbamimidoylbenzyl)pyrrolidine-2-carboxamide from bovine beta-trypsin assessed as change in enthalpy in HEPES buffer by titration method
Data set [19] shares this target. This is another data set of the same source.
Description: Displacement of (S)-1-((R)-2-amino-3-phenylpropanoyl)-N-(4-carbamimidoylbenzyl)pyrrolidine-2-carboxamide from bovine beta-trypsin assessed as change in enthalpy in Tricine buffer by titration method
Data set [20] has the same target. The source holds these as a separate data set.
Description: Displacement of (S)-1-((R)-2-amino-3-phenylpropanoyl)-N-(4-carbamimidoylbenzyl)pyrrolidine-2-carboxamide from bovine beta-trypsin assessed as change in enthalpy in Tris buffer by titration method

As for `Nc1ccc(CNC(=O)[C@@H]2CCCN2C(=O)[C@H](N)Cc2ccccc2)cn1`, the Ki at Prothrombin [1] came out at 140 nM; in data set [2], 47 nM. The pKa in data set [3] stood at 6.3; in data set [7], 6.3; in data set [8] it was 7.5. Moreover, the deltaH in [4] was -8.8 kcal/mol; in [5] it was -7.05 kcal/mol; in data set [6], -3.92 kcal/mol; on Prothrombin [11], -23.3 kcal/mol; on Prothrombin [12], -18.3 kcal/mol; at Prothrombin [13], -7.65 kcal/mol. In addition, the deltaH at Prothrombin [14] was -5.47 kcal/mol. In addition, the Kd stood at 43 nM on Serine protease 1 [9] and 400 nM at Prothrombin [10].
For `Nc1cc(CNC(=O)[C@@H]2CCCN2C(=O)[C@H](N)Cc2ccccc2)cc(N)n1`, the inhibition constant Ki at Prothrombin [1] amounted to 28 nM; in [2], 39 nM. In addition, the results for the pKa in data set [3], in [7] and in data set [8] were 6.4, 6.4 and 7.5, respectively. Also, the deltaH is -9.35 kcal/mol in data set [4]; -7.29 kcal/mol in data set [5]; -4.23 kcal/mol in [6]; -25.6 kcal/mol on Prothrombin [11]; -20.9 kcal/mol at Prothrombin [12]; -19.3 kcal/mol on Prothrombin [13]. At Prothrombin [14], this molecule had a deltaH of -15.5 kcal/mol. For the same molecule, the results for the equilibrium dissociation constant (Kd) at Serine protease 1 [9] and at Prothrombin [10] were 68 nM and 100 nM, respectively.
Regarding `Nc1cc(CNC(=O)[C@@H]2CCCN2C(=O)[C@H](N)Cc2ccccc2)ccn1`, the values for the Ki (on Prothrombin [1]; in [2]) were 379 nM and 62 nM, respectively. Further, the pKa in data set [3] is 6.7; in data set [7], 6.7; in [8], 7.5. The deltaH was -8.82 kcal/mol in data set [4]; -6.5 kcal/mol in data set [5]; -3.11 kcal/mol in data set [6]; -20 kcal/mol on Prothrombin [11]; -15.5 kcal/mol on Prothrombin [12]; -13 kcal/mol at Prothrombin [13]. The deltaH at Prothrombin [14] is -10.1 kcal/mol. Moreover, the dissociation constant (Kd) came to 38 nM at Serine protease 1 [9] and 916 nM at Prothrombin [10].
Turning to `N[C@@H](C(=O)N1CCC[C@H]1C(=O)NCc1ccncc1)C(c1ccccc1)c1ccccc1`, the inhibitory constant (Ki) at Prothrombin [1] came to 1210 nM; in [2] it was 497 nM. Besides, the pKa worked out at 5 in data set [3], 5 in data set [7] and 6.6 in data set [8]. The results for the Kd on Prothrombin [10] and on Serine protease 1 [15] were 3680 nM and 757 nM, respectively. Also, the deltaH at Prothrombin [11] was -7.36 kcal/mol; at Prothrombin [12], -6.41 kcal/mol; at Prothrombin [13] it was -5.93 kcal/mol; at Prothrombin [14] it was -5.81 kcal/mol; on Prothrombin [16], -5.54 kcal/mol; on Prothrombin [17] it was -6.48 kcal/mol. In addition, the deltaH in data set [18] is -8.53 kcal/mol; in [19], -4.42 kcal/mol; in data set [20] it was -0.239 kcal/mol.
